# Test results from patent US20230152324A1, “TUMOR-INTRINSIC NLRP3 INFLAMMASOME SIGNALING PATHWAY AS A GENETIC AND FUNCTIONAL BIOMARKER FOR IMMUNOTHERAPY RESPONSE” (Duke University, priority 2021, published 2023).
# Test system: mice bearing BRAF^V600EPTEN^−/− melanomas
# Assay: Lung fibronectin expression (qrt-PCR, IHC) in BRAFV600EPTEN−/− melanoma-bearing mice
# Format: in vivo, mouse
# Conditions: anti-PD-1 vs anti-PD-1/Wnti treated tumor-bearing mice
# From the text: Prior studies have shown that the arrival of […] (HPC) expressing vascular endothelial growth factor receptor-1 (VEGFR1) in the lung as well as increased fibronectin expression by local fibroblasts contribute to the formation of a pre-metastatic niche that subsequently supports metastatic progression (35). Using multi-parameter flow cytometry, we indeed observed an increase in a c-kit^+CD133^+CD34^+VEGFR1^+ HPC (VEGFR1^+ HPC) population in mice harboring BRAF^V600EPTEN^−/− melanomas relative to non-tumor-bearing controls. […]
# Small representative tissue specimens were harvested from tumors and lungs and stored in RNAlater at −80° C. […] Total RNA was isolated by RNeasy Plus Mini Kit (Qiagen, 74134) and RNA was quantified by NanoDrop. […] All data were normalized to Actb expression and relative gene expression was quantitated based on the 2ΔΔCt method. Relative mRNA levels of the following genes were measured: Cxcl5, Cxcl1, Cxcl2, Trp2, Csf3, Il1b, Fn1, Tgfb, Tgfbr2, Spp1, and Hsp70.
# Paraffin-Sections (5-μm) from primary melanomas and lung tissues were processed using standard protocols for immunohistochemistry (IHC) and immunofluorescence (IF) staining. […] PMN-MDSC quantitation by Ly6G-staining, and CD8^+ T cell quantitation by CD8a-staining were performed at 20× magnification and 6-8 random fields were averaged per section over 3-4 sections per specimen. […]
smiles,measurement,value
Cn1c(=O)c2c(ncn2CC(=O)Nc2ccc(-c3ccccc3)nn2)n(C)c1=O [ETC-159],tumor-dependent upregulation of fibronectin expression levels in the lungs,reversed
